Assay results as given in ChEMBL document CHEMBL1949518, “Synthesis and biological evaluation of some new 2-pyrazolines bearing benzene sulfonamide moiety as potential anti-inflammatory and anti-cancer agents” (Eur J Med Chem, 2011).

Tests used:
Format in all cases: functional
HOP-62 = test: Anticancer activity against human HOP62 cells after 48 hrs by SRB assay; settings: HOP-62, 48 h
UACC-62 = test: Anticancer activity against human UACC62 cells after 48 hrs by SRB assay; settings: UACC-62, 48 h
SW-620 = test: Anticancer activity against human SW620 cells after 48 hrs by SRB assay; settings: SW-620, 48 h
UACC-257 = test: Anticancer activity against human UACC257 cells after 48 hrs by SRB assay; settings: UACC-257, 48 h
OVCAR-5 = test: Anticancer activity against human OVCAR5 cells after 48 hrs by SRB assay; settings: OVCAR-5, 48 h
DU-145 = test: Anticancer activity against human DU145 cells after 48 hrs by SRB assay; settings: DU-145, 48 h
MCF7 = test: Anticancer activity against human MCF7 cells after 48 hrs by SRB assay; settings: MCF7, 48 h
NCI-H460 = test: Anticancer activity against human NCI-H460 cells after 48 hrs by SRB assay; settings: NCI-H460, 48 h
MDA-MB-435 = test: Anticancer activity against human MDA-MB-435 cells after 48 hrs by SRB assay; settings: MDA-MB-435, 48 h
NCI-H322M = test: Anticancer activity against human NCI-H322M cells after 48 hrs by SRB assay
TK-10 = test: Anticancer activity against human TK10 cells after 48 hrs by SRB assay; settings: TK-10, 48 h
NCI-H226 = test: Anticancer activity against human NCI-H226 cells after 48 hrs by SRB assay; settings: NCI-H226, 48 h
OVCAR-4 = test: Anticancer activity against human OVCAR4 cells after 48 hrs by SRB assay; settings: OVCAR-4, 48 h
IGROV-1 = test: Anticancer activity against human IGROV1 cells after 48 hrs by SRB assay; settings: IGROV-1, 48 h
SNB-19 = test: Anticancer activity against human SNB19 cells after 48 hrs by SRB assay; settings: SNB-19, 48 h
ACHN = test: Anticancer activity against human ACHN cells after 48 hrs by SRB assay
COLO 205 = test: Anticancer activity against human COLO205 cells after 48 hrs by SRB assay; settings: COLO 205, 48 h
Malme-3M = test: Anticancer activity against human MALME-3M cells after 48 hrs by SRB assay
SR = test: Anticancer activity against human SR cells after 48 hrs by SRB assay
UO-31 = test: Antiproliferative activity against human UO31 cells assessed as cell growth at 10^-5 M after 48 hrs by SRB assay relative to control; settings: UO-31, 48 h, read-out: Activity
[1] = Anticancer activity against human Hs 578T cells after 48 hrs by SRB assay
CAKI-1 = test: Anticancer activity against human Caki1 cells after 48 hrs by SRB assay; settings: CAKI-1, 48 h
NCI/ADR-RES = test: Anticancer activity against human NCI/ADR-RES cells after 48 hrs by SRB assay
KM12 = test: Anticancer activity against human KM12 cells after 48 hrs by SRB assay; settings: KM12, 48 h
SK-MEL-5 = test: Anticancer activity against human SK-MEL-5 cells after 48 hrs by SRB assay; settings: SK-MEL-5, 48 h
SF-539 = test: Anticancer activity against human SF539 cells after 48 hrs by SRB assay; settings: SF-539, 48 h
MOLT-4 = test: Anticancer activity against human MOLT4 cells after 48 hrs by SRB assay; settings: MOLT-4, 48 h
MDA-MB-231 = test: Anticancer activity against human MDA-MB-231 cells after 48 hrs by SRB assay; settings: MDA-MB-231, 48 h
BT-549 = test: Anticancer activity against human BT549 cells after 48 hrs by SRB assay; settings: BT-549, 48 h
SK-MEL-28 = test: Anticancer activity against human SK-MEL-28 cells after 48 hrs by SRB assay; settings: SK-MEL-28, 48 h
SF-295 = test: Anticancer activity against human SF295 cells after 48 hrs by SRB assay; settings: SF-295, 48 h
786-0 = test: Anticancer activity against human 786-0 cells after 48 hrs by SRB assay; settings: 786-0, 48 h
LOX IMVI = test: Anticancer activity against human LOXIMVI cells after 48 hrs by SRB assay
HCC 2998 = test: Anticancer activity against human HCC2998 cells after 48 hrs by SRB assay; settings: HCC 2998, 48 h
MDA-MB-468 = test: Anticancer activity against human MDA-MB-468 cells after 48 hrs by SRB assay; settings: MDA-MB-468, 48 h
[2] = read-out: LC50 (the source's name)

SMILES: Cc1cc(O)c(C2=NN(c3ccc(S(N)(=O)=O)cc3)C(c3ccc(N(C)C)cc3)C2)c(C)c1Cl (stereo not drawn)
- GI50 (HOP-62): 10.4 µM
- LC50 (HOP-62): 52.1 µM
- TGI (HOP-62): 23.3 µM
- GI50 (UACC-62): 3.49 µM
- LC50 (lethal concentration 50%) (UACC-62): 38.8 µM
- TGI (UACC-62): 15.1 µM
- GI50 (SW-620): 3.72 µM
- LC50 (concentration killing 50% of cells) (SW-620): 50.2 µM
- TGI (SW-620): 15.2 µM
- GI50 (UACC-257): 11.9 µM
- LC50 (UACC-257): 60.2 µM
- TGI (UACC-257): 26.8 µM
- GI50 (OVCAR-5): 12.3 µM
- LC50 (OVCAR-5): 49.7 µM
- TGI (OVCAR-5): 24.7 µM
- GI50 (DU-145): 5.6 µM
- TGI (DU-145): 17.6 µM
- CC50 (DU-145; [2]): 42.3 µM
- GI50 (MCF7): 2.01 µM
- TGI (MCF7): 10.5 µM
- CC50 (MCF7; [2]): 37.1 µM
- GI50 (NCI-H460): 2.53 µM
- TGI (NCI-H460): 7.24 µM
- CC50 (NCI-H460; [2]): 29.8 µM
- GI50 (MDA-MB-435): 3.57 µM
- LC50 (concentration killing 50% of cells) (MDA-MB-435): 41.5 µM
- TGI (MDA-MB-435): 14.8 µM
- GI50 (NCI-H322M): 5.01 µM
- LC50 (NCI-H322M): 52.9 µM
- TGI (NCI-H322M): 20.2 µM
- GI50 (TK-10): 4.48 µM
- TGI (TK-10): 18.8 µM
- CC50 (TK-10; [2]): 69.5 µM
- GI50 (NCI-H226): 10.5 µM
- LC50 (NCI-H226): 55.6 µM
- TGI (NCI-H226): 24.1 µM
- GI50 (OVCAR-4): 7.68 µM
- LC50 (OVCAR-4): 49.7 µM
- TGI (OVCAR-4): 21.2 µM
- GI50 (IGROV-1): 6.19 µM
- LC50 (IGROV-1): 60.2 µM
- TGI (IGROV-1): 22.3 µM
- GI50 (SNB-19): 12.4 µM
- LC50 (SNB-19): 49.9 µM
- TGI (SNB-19): 24.9 µM
- GI50 (ACHN): 3.7 µM
- TGI (ACHN): 14.4 µM
- CC50 (ACHN; [2]): 39.5 µM
- GI50 (COLO 205): 1.69 µM
- LC50 (COLO 205): 6.49 µM
- TGI (COLO 205): 3.31 µM
- GI50 (Malme-3M): 14.8 µM
- TGI (Malme-3M): 35.2 µM
- CC50 (Malme-3M; [2]): 83.4 µM
- GI50 (SR): 1.28 µM
- LC50 (concentration killing 50% of cells) (SR): 45.9 µM
- TGI (SR): 17.8 µM
- growth at 10 µM (UO-31): 66.6%
- GI50 [1]: 3.45 µM
- TGI [1]: 20 µM
- CC50 [1, 2]: 91.5 µM
- GI50 (CAKI-1): 4.38 µM
- TGI (CAKI-1): 18.2 µM
- CC50 (CAKI-1; [2]): 45 µM
- GI50 (NCI/ADR-RES): 4.63 µM
- TGI (NCI/ADR-RES): 17 µM
- CC50 (NCI/ADR-RES; [2]): 4.35 µM
- GI50 (KM12): 2.8 µM
- LC50 (KM12): 38.2 µM
- TGI (KM12): 10.6 µM
- GI50 (SK-MEL-5): 9.59 µM
- LC50 (concentration killing 50% of cells) (SK-MEL-5): 46.2 µM
- TGI (SK-MEL-5): 21.4 µM
- GI50 (SF-539): 12.3 µM
- LC50 (SF-539): 49.7 µM
- TGI (SF-539): 24.7 µM
- GI50 (MOLT-4): 1.94 µM
- LC50 (MOLT-4): 34.9 µM
- TGI (MOLT-4): 7.26 µM
- GI50 (MDA-MB-231): 2.34 µM
- TGI (MDA-MB-231): 11.8 µM
- CC50 (MDA-MB-231; [2]): 38.7 µM
- GI50 (BT-549): 1.31 µM
- TGI (BT-549): 27.7 µM
- CC50 (BT-549; [2]): 58.9 µM
- GI50 (SK-MEL-28): 11.7 µM
- LC50 (SK-MEL-28): 48.9 µM
- TGI (SK-MEL-28): 23.9 µM
- GI50 (SF-295): 16 µM
- LC50 (SF-295): 62.4 µM
- TGI (SF-295): 31.6 µM
- GI50 (786-0): 4.97 µM
- TGI (786-0): 17.4 µM
- CC50 (786-0; [2]): 43.4 µM
- GI50 (LOX IMVI): 2.34 µM
- TGI (LOX IMVI): 6.98 µM
- CC50 (LOX IMVI; [2]): 32.7 µM
- GI50 (HCC 2998): 6.48 µM
- LC50 (HCC 2998): 43.8 µM
- TGI (HCC 2998): 19.1 µM
- GI50 (MDA-MB-468): 10.7 µM
- TGI (MDA-MB-468): 24.6 µM
- CC50 (MDA-MB-468; [2]): 56.8 µM
